One may read the melting point as the temperature of the solid-liquid transition. `Cc1cc(-n2ccc(OCc3ccc(C(F)(F)F)cc3)cc2=O)sc1C(=O)NCc1ccccc1` [Example 9.1, N-Benzyl-3-methyl-5-(2-oxo-4-(4-(trifluoromethyl)benzyloxy)pyridin-1(2H)-yl)thiophene-2-carboxamide] gave a melting point of 225 to 227 °C. To `Cc1nc(-n2ccc(OCc3cccnc3)cc2=O)sc1C(=O)NCc1ccccc1` [Example 6, N-Benzyl-4-methyl-2-(2-oxo-4-(pyridin-3-ylmethoxy)pyridin-1(2H)-yl)thiazole-5-carboxamide] belongs 214 to 216 °C; to `Cc1nc(-n2ccc(O)cc2=O)sc1C(=O)NCc1cccnc1` [Example 7.10, 2-(4-Hydroxy-2-oxopyridin-1(2H)-yl)-4-methyl-N-(pyridin-3-ylmethyl)thiazole-5-carboxamide], 238 to 240 °C; to `Cc1nc(-n2ccc(Oc3ccccc3)cc2=O)sc1C(=O)NCc1ccccc1` [Example 18, N-Benzyl-4-methyl-2-(2-oxo-4-phenoxypyridin-1(2H)-yl)thiazole-5-carboxamide], 67 to 70 °C. To `Cc1nc(-n2ccc(OCc3ccc(F)cc3)cc2=O)sc1C(=O)O` [Example 13.7, 2-(4-(4-Fluorobenzyloxy)-2-oxopyridin-1(2H)-yl)-4-methylthiazole-5-carboxylic acid] belongs greater than 300 °C; to `Cc1c(C(=O)NCc2ccccc2)nc(-n2ccc(OCc3ccccc3)cc2=O)n1C` [Example 1.10, N-Benzyl-2-(4-(benzyloxy)-2-oxopyridin-1(2H)-yl)-1,5-dimethyl-1H-imidazole-4-carboxamide], 190 to 191 °C; to `Cc1nc(-n2cc(C(=O)Nc3ccccc3)ccc2=O)sc1C(=O)NCc1ccccc1` [Example 3.15, N-Benzyl-4-methyl-2-(2-oxo-5-(phenylcarbamoyl)pyridin-1(2H)-yl)thiazole-5-carboxamide], 223 to 225 °C. Consider `Cc1nc(-n2ccc(CCc3ccccc3)cc2=O)sc1C(=O)NCc1ccccc1` [Example 19, N-benzyl-4-methyl-2-(2-oxo-4-phenethylpyridine-1(2H)-yl)thiazole-5-carboxamide], for which the melting point is 149 to 150 °C.

As to `Cc1nc(-n2cc(C(F)(F)F)ccc2=O)sc1C(=O)NCc1ccccc1` [Example 3.4, N-Benzyl-4-methyl-2-(2-oxo-5-(trifluoromethyl)pyridin-1(2H)-yl)thiazole-5-carboxamide], the melting point fell in the range of 148 to 149 °C.

On to `Cc1nc(-n2ccc(C(F)(F)F)cc2=O)sc1C(=O)NCc1ccccc1` [Example 3.6, N-Benzyl-4-methyl-2-(2-oxo-4-(trifluoromethyl)pyridin-1(2H)-yl)thiazole-5-carboxamide], for which the melting point lay in the range of 197 to 198 °C.

For the compound `Cc1nc(-n2ccc(C(F)(F)F)cc2=O)sc1C(=O)NCc1cccnc1` [Example 3.24, 4-Methyl-2-(2-oxo-4-(trifluoromethyl)pyridin-1(2H)-yl)-N-(pyridin-3-ylmethyl)thiazole-5-carboxamide], the melting point is 172 to 173 °C. For the compound `Cc1nc(-n2ccc(OCc3ccc(F)cc3)cc2=O)sc1C(=O)NCc1cccnc1` [Example 1.13, 2-(4-(4-Fluorobenzyloxy)-2-oxopyridin-1(2H)-yl)-4-methyl-N-(pyridin-3-ylmethyl)thiazole-5-carboxamide], the melting point is 231 to 233 °C.

Compound `Cc1nc(-n2ccc(OCc3ccc(OC(F)F)cc3)cc2=O)sc1C(=O)NCc1ccc(F)cc1` [Example 9.9, 2-(4-(4-(Difluoromethoxy)benzyloxy)-2-oxopyridin-1(2H)-yl)-N-(4-fluorobenzyl)-4-methylthiazole-5-carboxamide] showed a melting point of 242 to 244 °C. The compound `Cc1nc(-n2ccc(NC(=O)c3ccccc3)cc2=O)sc1C(=O)NCc1ccccc1` [Example 4, 2-(4-Benzamido-2-oxopyridin-1(2H)-yl)-N-benzyl-4-methylthiazole-5-carboxamide] displayed a melting point of 246 to 248 °C. In the case of `Cc1nc(-n2ccc(OCc3ccc(C(F)(F)F)cc3)cc2=O)sc1C(=O)NCc1ccccc1` [Example 9.8, N-Benzyl-4-methyl-2-(2-oxo-4-(4-(trifluoromethyl)benzyloxy)pyridin-1(2H)-yl)thiazole-5-carboxamide], the melting point lay within 278 to 280 °C.

`Cc1nc(-n2ccccc2=O)sc1C(=O)NCc1cccnc1` [Example 3.16, 4-Methyl-2-(2-oxopyridin-1(2H)-yl)-N-(pyridin-3-ylmethyl)thiazole-5-carboxamide]: the melting point fell in the range of 218 to 220 °C. To `CCOC(=O)c1sc(-n2ccc(O)cc2=O)nc1C` [Example 14, Ethyl 2-(4-Hydroxy-2-oxopyridin-1(2H)-yl)-4-methylthiazole-5-carboxylate] belongs 270 to 273 °C. For the compound `Cc1cc(-n2ccc(OCc3ccccc3)cc2=O)sc1C(=O)NCc1ccc(F)cc1` [Example 3.21, 5-(4-(Benzyloxy)-2-oxopyridin-1(2H)-yl)-N-(4-fluorobenzyl)-3-methylthiophene-2-carboxamide], the melting point is 175 to 177 °C. Compound `Cc1nc(-n2ccc(OCc3ccccc3)cc2=O)n(C)c1C(=O)NCc1ccccc1` [Example 1.9, N-Benzyl-2-(4-(benzyloxy)-2-oxopyridin-1(2H)-yl)-1,4-dimethyl-1H-imidazole-5-carboxamide] displayed a melting point of 232 to 233 °C. To `Cc1nc(-n2ccc(OCc3ccc(C(F)(F)F)o3)cc2=O)sc1C(=O)NCc1cccnc1` [Example 1.12, 4-Methyl-2-(2-oxo-4-((5-(trifluoromethyl)furan-2-yl)methoxy)pyridin-1(2H)-yl)-N-(pyridin-3-ylmethyl)thiazole-5-carboxamide] belongs 240 to 242 °C. Under `Cc1cc(-n2ccc(OCCC3CC3)cc2=O)sc1C(=O)NCc1ccccc1` [Example 9, N-Benzyl-5-(4-(2-cyclopropylethoxy)-2-oxopyridin-1(2H)-yl)-3-methylthiophene-2-carboxamide] stands 134 to 136 °C; under `Cc1cc(-n2ccc(OCc3ccccc3)cc2=O)sc1C(=O)NCc1cccnc1` [Example 1.23, 5-(4-(Benzyloxy)-2-oxopyridin-1(2H)-yl)-3-methyl-N-(pyridin-3-ylmethyl)thiophene-2-carboxamide], 165 to 167 °C; under `Cc1nc(-n2cccc(OCc3ccccc3)c2=O)sc1C(=O)NCc1ccccc1` [Example 3.7, N-Benzyl-2-(3-(benzyloxy)-2-oxopyridin-1(2H)-yl)-4-methylthiazole-5-carboxamide], 198 to 201 °C. As to `Cc1nc(-n2ccc(OCCC3CC3)cc2=O)sc1C(=O)NCc1cccnc1` [Example 1.5, 2-(4-(2-Cyclopropylethoxy)-2-oxopyridin-1(2H)-yl)-4-methyl-N-(pyridin-3-ylmethyl)thiazole-5-carboxamide], the melting point lay in the range of 170 to 172 °C. Under `CCOC(=O)c1sc(-n2ccc(OC)cc2=O)nc1C` [Example 15.1, Ethyl 2-(4-Methoxy-2-oxopyridin-1(2H)-yl)-4-methylthiazole-5-carboxylate] stands 163 to 165 °C; under `Cc1nc(-n2ccc(OCc3ccccc3)cc2=O)sc1C(=O)NCc1ccccc1` [Example 2, N-Benzyl-2-(4-(benzyloxy)-2-oxopyridin-1(2H)-yl)-4-methylthiazole-5-carboxamide], 219 to 220 °C. The compound `Cc1nc(-n2ccc(O)cc2=O)sc1C(=O)NCc1ccc(F)cc1` [Example 1.6, N-(4-Fluorobenzyl)-2-(4-hydroxy-2-oxopyridin-1(2H)-yl)-4-methylthiazole-5-carboxamide] registered a melting point of 280 to 282 °C. Regarding `Cc1nc(-n2cc(Cl)ccc2=O)sc1C(=O)NCc1ccccc1` [Example 3.3, N-Benzyl-2-(5-chloro-2-oxopyridin-1(2H)-yl)-4-methylthiazole-5-carboxamide], the melting point was 173 to 174 °C.

The compound `Cc1nc(-n2ccc(OCc3ccccc3)cc2=O)sc1C(=O)NCc1ccc(F)c(F)c1` [Example 3.17, 2-(4-(Benzyloxy)-2-oxopyridin-1(2H)-yl)-N-(3,4-difluorobenzyl)-4-methylthiazole-5-carboxamide] yielded a melting point of 225 to 227 °C. To `CCOC(=O)c1sc(-n2ccc(OCc3ccc(C(F)(F)F)o3)cc2=O)nc1C` [Example 17] belongs 196 to 198 °C; to `O=C(NCc1ccccc1)c1csc(-n2ccc(OCc3ccccc3)cc2=O)c1` [Example 8, N-Benzyl-5-(4-(benzyloxy)-2-oxopyridin-1(2H)-yl)thiophene-3-carboxamide], 162 to 163 °C; to `Cc1cc(-n2ccc(CCc3ccccc3)cc2=O)sc1C(=O)NCc1ccccc1` [Example 24, N-benzyl-3-methyl-5-(2-oxo-4-phenethylpyridine-1(2H)-yl)thiophene-2-carboxamide], 145 to 146 °C. To `Cc1nc(-n2ccc(O)cc2=O)sc1C(=O)NCCc1ccc(F)cc1` [Example 1.18, N-(4-Fluorophenethyl)-2-(4-hydroxy-2-oxopyridin-1(2H)-yl)-4-methylthiazole-5-carboxamide] belongs 225 to 227 °C. To `Cc1nc(-n2ccc(OCc3ccc(F)cc3)cc2=O)sc1C(=O)NCc1ccccc1` [Example 1.24, N-Benzyl-2-(4-(4-fluorobenzyloxy)-2-oxopyridin-1(2H)-yl)-4-methylthiazole-5-carboxamide] belongs 243 to 245 °C; to `Cc1nc(-n2ccc(OCc3ccccc3)cc2=O)[nH]c1C(=O)NCc1cccnc1` [Example 1.8, 2-(4-(Benzyloxy)-2-oxopyridin-1(2H)-yl)-4-methyl-N-(pyridin-3-ylmethyl)-1H-imidazole-5-carboxamide], 203 to 204 °C; to `Cc1nc(-n2ccc(OCc3ccccc3)cc2=O)sc1C(=O)NCc1ccc(F)cc1` [Example 3.12, 2-(4-(Benzyloxy)-2-oxopyridin-1(2H)-yl)-N-(4-fluorobenzyl)-4-methylthiazole-5-carboxamide], 223 to 225 °C. Turning to `Cc1nc(-n2ccc(OCC3CCCO3)cc2=O)sc1C(=O)NCc1ccccc1` (stereo not shown) [Example 9.12, N-Benzyl-4-methyl-2-(2-oxo-4-((tetrahydrofuran-2-yl)methoxy)pyridin-1(2H)-yl)thiazole-5-carboxamide], the melting point is 181 to 183 °C.

These data come from US8501746B2, “Organic compounds” (Xenon Pharmaceuticals Inc., priority 2006, dated 2013).
